Measurements published in paper PMC11435058, “Synthesis of New Thiazole-Privileged Chalcones as Tubulin Polymerization Inhibitors with Potential Anticancer Activities” (Pharmaceuticals, 2024).

What was measured:
[1] = system: MCF7; assay: NCI-60 anticancer screen (SRB; single dose and five doses); settings: Homo sapiens, MCF7, 48 h, read-out: Growth Percentage
[2] = system: LOX IMVI; assay: as above; settings: Homo sapiens, 48 h, read-out: Growth Percentage
[3] = system: T-47D; assay: as above; settings: Homo sapiens, T47D, 48 h, read-out: Growth Percentage
[4] = system: OVCAR-3; assay: cells; settings: Homo sapiens, OVCAR-3, 48 h, read-out: Growth Percentage
[5] = system: EKVX; assay: NCI-60 anticancer screen (SRB; single dose and five doses); settings: Homo sapiens, 48 h, read-out: Growth Percentage
[6] = system: HS 578T; assay: as above; settings: Homo sapiens, 48 h, read-out: Growth Percentage
[7] = system: SF-268; assay: as above; settings: Homo sapiens, SF-268, 48 h, read-out: Growth Percentage
[8] = system: SNB-75; assay: as above; settings: Homo sapiens, SNB-75, 48 h, read-out: Growth Percentage
[9] = system: MDA-MB-231/ATCC; assay: as above; settings: Homo sapiens, MDA-MB-231, 48 h, read-out: Growth Percentage
[10] = system: KM12; assay: as above; settings: Homo sapiens, KM12, 48 h, read-out: Growth Percentage
[11] = system: 786-0; assay: as above; settings: Homo sapiens, 786-0, 48 h, read-out: Growth Percentage
[12] = system: UO-31; assay: as above; settings: Homo sapiens, UO-31, 48 h, read-out: Growth Percentage
[13] = system: SR; assay: as above; settings: Homo sapiens, 48 h, read-out: Growth Percentage
[14] = system: DU-145; assay: as above; settings: Homo sapiens, DU-145, 48 h, read-out: Growth Percentage
[15] = system: UACC-62; assay: as above; settings: Homo sapiens, UACC-62, 48 h, read-out: Growth Percentage
[16] = system: SK-MEL-2; assay: as above; settings: Homo sapiens, SK-MEL-2, 48 h, read-out: Growth Percentage
[17] = system: SN12C; assay: as above; settings: Homo sapiens, 48 h, read-out: Growth Percentage
[18] = system: CAKI-1; assay: as above; settings: Homo sapiens, CAKI-1, 48 h, read-out: Growth Percentage
[19] = system: OVCAR-5; assay: as above; settings: Homo sapiens, OVCAR-5, 48 h, read-out: Growth Percentage
[20] = system: IGROV1; assay: as above; settings: Homo sapiens, IGROV-1, 48 h, read-out: Growth Percentage
[21] = system: UACC-257; assay: as above; settings: Homo sapiens, UACC-257, 48 h, read-out: Growth Percentage
[22] = system: SK-MEL-5; assay: as above; settings: Homo sapiens, SK-MEL-5, 48 h, read-out: Growth Percentage
[23] = system: K-562; assay: as above; settings: Homo sapiens, K562, 48 h, read-out: Growth Percentage
[24] = system: MDA-MB-435; assay: as above; settings: Homo sapiens, MDA-MB-435, 48 h, read-out: Growth Percentage
[25] = system: OVCAR-4; assay: as above; settings: Homo sapiens, OVCAR-4, 48 h, read-out: Growth Percentage
[26] = system: HT29; assay: as above; settings: Homo sapiens, HT-29, 48 h, read-out: Growth Percentage
[27] = system: HL-60(TB); assay: as above; settings: Homo sapiens, HL-60, 48 h, read-out: Growth Percentage
[28] = system: U251; assay: as above; settings: Homo sapiens, U-251, 48 h, read-out: Growth Percentage
[29] = system: SW-620; assay: as above; settings: Homo sapiens, SW-620, 48 h, read-out: Growth Percentage

In the case of `Cc1ccc(/C=C/C(=O)c2sc(=S)[nH]c2C)cc1` [2j, (E)-1-(4-Methyl-2-Thioxo-2,3-Dihydrothiazol-5-yl)-3-(p-Tolyl)Prop-2-En-1-One], the activity at 10 µM [1] is reported as 28.3%, the activity at 10 µM [2] is reported as 31.2% and the activity at 10 µM [3] is reported as 38.3%. It also gave an activity at 10 µM [4] of 15%, an activity at 10 µM [5] of 55.5% and an activity at 10 µM [6] of 101%. The activity at 10 µM [7] was 86.9%, the activity at 10 µM [8] was 78.1% and the activity at 10 µM [9] was 71.7%. The activity at 10 µM [10] was 29.8%, the activity at 10 µM [11] was 70.7% and the activity at 10 µM [12] was 46.8%. The activity at 10 µM [13] was 45.5%, the activity at 10 µM [14] was 54.6% and the activity at 10 µM [15] was 59.4%. It also gave an activity at 10 µM [16] of 89.8%, an activity at 10 µM [17] of 62.3% and an activity at 10 µM [18] of 43.4%. For the same compound, the activity at 10 µM [19] was 138%, the activity at 10 µM [20] was 83.4% and the activity at 10 µM [21] was 80.1%. For the same compound, the activity at 10 µM [22] was 56.1%, the activity at 10 µM [23] was 34.2% and the activity at 10 µM [24] was 39%. The activity at 10 µM [25] was 59.2%, the activity at 10 µM [26] was 98.7% and the activity at 10 µM [27] was 61%. For the same compound, the activity at 10 µM [28] was 60.4% and the activity at 10 µM [29] was 35.9%.

Compound `Cc1[nH]c(=S)sc1C(=O)/C=C/c1ccc(N(C)C)cc1` [2k, (E)-3-(4-(Dimethylamino)Phenyl)-1-(4-Methyl-2-Thioxo-2,3-Dihydrothiazol-5-yl)Prop-2-En-1-One] has an activity at 10 µM [1] of 60%, an activity at 10 µM [2] of 60.2% and an activity at 10 µM [3] of 32.4%. The activity at 10 µM [4] was 82.2%, the activity at 10 µM [5] was 67% and the activity at 10 µM [6] was 118%. For the same compound, the activity at 10 µM [7] was 99.3%, the activity at 10 µM [8] was 96% and the activity at 10 µM [9] was 90.3%. The activity at 10 µM [10] was 62.6%, the activity at 10 µM [11] was 91.7% and the activity at 10 µM [12] was 48.3%. It also gave an activity at 10 µM [13] of 57.4%, an activity at 10 µM [14] of 92.8% and an activity at 10 µM [15] of 58.7%. For the same compound, the activity at 10 µM [16] was 88.9%, the activity at 10 µM [17] was 75.7% and the activity at 10 µM [18] was 68.6%. For the same compound, the activity at 10 µM [19] was 142%, the activity at 10 µM [20] was 82.3% and the activity at 10 µM [21] was 64.1%. The activity at 10 µM [22] was 51.3%, the activity at 10 µM [23] was 47% and the activity at 10 µM [24] was 58.4%. It also gave an activity at 10 µM [25] of 51.2%, an activity at 10 µM [26] of 94% and an activity at 10 µM [27] of 87%. The activity at 10 µM [28] was 67.1% and the activity at 10 µM [29] was 89.9%.

With `COc1ccc(/C=C/C(=O)c2sc(=S)[nH]c2C)cc1OC` [2o, (E)-3-(3,4-Dimethoxyphenyl)-1-(4-Methyl-2-Thioxo-2,3-Dihydrothiazol-5-yl)Prop-2-En-1-One] the activity at 10 µM [1] was 28.9%, the activity at 10 µM [2] was 26.9% and the activity at 10 µM [3] was 44.1%. For the same compound, the activity at 10 µM [4] was 3.22%, the activity at 10 µM [5] was 54.2% and the activity at 10 µM [6] was 84.7%. The activity at 10 µM [7] was 67.2%, the activity at 10 µM [8] was 58.1% and the activity at 10 µM [9] was 58.4%. For the same compound, the activity at 10 µM [10] was 42.2%, the activity at 10 µM [11] was 60% and the activity at 10 µM [12] was 49.2%. For the same compound, the activity at 10 µM [13] was 32.5%, the activity at 10 µM [14] was 48.1% and the activity at 10 µM [15] was 63.9%. The activity at 10 µM [16] was 68.6%, the activity at 10 µM [17] was 45.4% and the activity at 10 µM [18] was 42%. For the same compound, the activity at 10 µM [19] was 131%, the activity at 10 µM [20] was 69.5% and the activity at 10 µM [21] was 71.4%. It also gave an activity at 10 µM [22] of 63.1%, an activity at 10 µM [23] of 32.4% and an activity at 10 µM [24] of 38.9%. For the same compound, the activity at 10 µM [25] was 47.6%, the activity at 10 µM [26] was 97.7% and the activity at 10 µM [27] was 35.6%. It also gave an activity at 10 µM [28] of 33.7% and an activity at 10 µM [29] of 34.9%.
